Measured values: US20210268122A1, “INHIBITION OF S[…] PROTEIN INHIBITORS OF CYSTEINE PROTEASES” (DYVE BIOSCIENCES, INC., priority 2017, published 2021)
Like-named read-outs stand apart in the source and are kept apart here.

Assays:
[1] = system: MMTV-PyMT-transgenic mouse model; conditions: cited from earlier work
RIP1-Tag2 mice = conditions: 100 μL topically once daily
Description: Trial design was built to assess these primary outcomes: the effects on angiogenesis and tumor growth. Treatment groups randomized as follows:
Each applied topically once daily. Formulations are detailed below:

cysteine cathepsin = conditions: after intra-peritoneal injections; cited from earlier work
MDA-MB-231/eGFP cells [2] = system: MDA-MB-231/eGFP cells
LL/2 cells = conditions: SCID-beige mice, 1×10^6 LL/2 cells intravenously; treatment for 120 days
Protocol: In vivo tests were performed as follows: SCID-beige mice aged 6 weeks were injected intravenously with 1×10^6 LL/2 cells.
The treatment groups were:
Group A (Negative Control): Untreated
Volumes of primary tumors were measured twice weekly.

MDA-MB-231/eGFP cells [3] = conditions: Example 14, Ncr nude mice
[4] = Example 13, Ncr nude mice, gross necropsy at end of 120 day survival experiment
[5] = gross necropsy at end of 120 day survival experiment

JPM-OEt
activity against early and advanced mammary cancer stages [1]: active
reduction in the number of angiogenic islets relative to the Control Group (RIP1-Tag2 mice; at 10.5 weeks of age): 49%
reduction of cumulative tumor volume relative to the Control Group (RIP1-Tag2 mice; at 14.5 weeks of age): 67%
cysteine cathepsin activities in mammary and in lungs (cysteine cathepsin): not significantly affected
cysteine cathepsin activities in pancreas, kidney, and liver (cysteine cathepsin): effective inhibition

O=C([O-])O.[Na+] [Group B (Oral Buffer, Positive Control), sodium bicarbonate]
% of mice surviving to 120 days (MDA-MB-231/eGFP cells [2]; Example 13, Ncr nude mice, MDA-MB-231/eGFP orthotopic): 60%
metastatic rate, intestinal (MDA-MB-231/eGFP cells [2]; [4]): 0%
metastatic rate, lung (MDA-MB-231/eGFP cells [2]; [4]): 8%
metastatic rate, lymph node (MDA-MB-231/eGFP cells [2]; [4]): 27%
metastatic rate, mesentery (MDA-MB-231/eGFP cells [2]; [4]): 0%
primary tumor growth rates (MDA-MB-231/eGFP cells [2]; Example 13, compared among all active groups B, C, D, E): the same
mice surviving to 120 days (LL/2 cells): 20%
% of mice surviving to 120 days (MDA-MB-231/eGFP cells [3]; MDA-MB-231/eGFP orthotopic): 60%
metastatic rate, intestinal (MDA-MB-231/eGFP cells [3]; [5]): 0%
metastatic rate, lung (MDA-MB-231/eGFP cells [3]; [5]): 8%
metastatic rate, lymph node (MDA-MB-231/eGFP cells [3]; [5]): 27%
metastatic rate, mesentery (MDA-MB-231/eGFP cells [3]; [5]): 0%
